Results taken from PMC5766581, “NF-κB inducing kinase is a therapeutic target for systemic lupus erythematosus” (Nature Communications, 2018).
pIC50: −log10 of the molar value.

Columns and labels:
[1] = test system: IL-12p40 production from mouse splenic DC; experiment: anti-CD40-induced IL-12p40 production from splenic DCs; assay type: cell-based; conditions: WT mouse splenic DC (not in NIK-deficient); 3 µM or 1 µM, 18 hrs
Protocol: Supplementary Figure 2. NIK inhibition of IL-12p40 production from splenic DCs Splenic DCs (B220- CD11c +) were sorted from Nik WT/WT,CD11c-CRE + and Nik fl/fl, CD11c- […]
µM) for 18 hrs. IL-12p40 production was measured by ELISA. Data represented as mean ± standard deviation of 3 biological replicates. One-way ANOVA with Tukey’s test for multiple comparisons. *p<0.05, **p<0.01, ***p<0.001; ****p<0.0001; ns, not significant.

CHK1 = biological target: T1, CHK1 (Homo sapiens, UniProt O14757); experiment: SelectScreen kinase panel; assay type: biochemical
T1 construct: purchased Invitrogen / ThermoFisher SelectScreen
Protocol: (§1) The ability of NIK to catalyze the hydrolysis of adenosine-5′-triphosphate (ATP) was monitored using the Transcreener ADP (adenosine-5′-diphosphate) assay (Bell Brook Labs, Fitchburg, WI). Purified human NIK kinase domain (a.a. 340–694) (0.5 nM) or mouse NIK kinase domain (a.a. 329–675) (1 nM) derived from a baculovirus-infected insect cell expression system was incubated with test compounds for 0.5–2 h in 50 mM HEPES buffer (pH 7.2) containing 10 mM MgCl2, 2 mM dithiothreitol, 10 μM ATP, 0.01% Triton X-100, 0.1% gamma-globulins from bovine blood, 1% dimethylsulfoxide (DMSO), 7 μg/mL ADP antibody and 5 nM ADP-MR121 633 tracer. Reactions were quenched by the addition of 20 mM EDTA and 0.01% Brij 35. The tracer bound to the antibody was displaced by the ADP generated during the NIK reaction, which caused a decrease in fluorescence polarization that was measured by laser excitation at 633 nm with a Fluorescence Correlation Spectroscopy Plus reader (Evotec AG). Equilibrium dissociation constant (Ki) values for NIK inhibitors are calculated from plots of activity vs. inhibitor concentration using Morrison’s quadratic equation that accounts for the potential of tight binding, and by also applying the conversion factor that accounted for competitive inhibition and the concentration of substrate used in the assay relative to its Michaelis constant (Km). The Ki values with hPKD1 (PKCμ) were determined using the same assay conditions as for NIK. Ki measurements for hKHS1 and hLRRK2, as well as broad kinase selectivity profiling for SMI1, were carried out by Invitrogen using their SelectScreen kinase assay panel (ThermoFisher Scientific, Madison, WI). The vendor offered two types of kinase activity assays, a peptide phosphorylation assay (Z′-LYTE) and an ADP quantitation assay (Adapta), as well as one type of kinase ATP site competitive binding assay (LanthaScreen). See vendor web site for technology and protocol details for each specific kinase assay.
(§2) The average % Inhibition of each kinase is reported (Supplementary Table 1).

ErbB4 = biological target: T2, ErbB4 (Homo sapiens, UniProt Q15303); experiment: SelectScreen kinase panel; assay type: biochemical
T2 construct: purchased Invitrogen / ThermoFisher SelectScreen
Protocol: as §1, §2

ZIPK = biological target: T3, ZIPK (Homo sapiens, UniProt O43293); experiment: SelectScreen kinase panel; assay type: biochemical
T3 construct: purchased Invitrogen / ThermoFisher SelectScreen
T3 sequence (O43293 whole entry): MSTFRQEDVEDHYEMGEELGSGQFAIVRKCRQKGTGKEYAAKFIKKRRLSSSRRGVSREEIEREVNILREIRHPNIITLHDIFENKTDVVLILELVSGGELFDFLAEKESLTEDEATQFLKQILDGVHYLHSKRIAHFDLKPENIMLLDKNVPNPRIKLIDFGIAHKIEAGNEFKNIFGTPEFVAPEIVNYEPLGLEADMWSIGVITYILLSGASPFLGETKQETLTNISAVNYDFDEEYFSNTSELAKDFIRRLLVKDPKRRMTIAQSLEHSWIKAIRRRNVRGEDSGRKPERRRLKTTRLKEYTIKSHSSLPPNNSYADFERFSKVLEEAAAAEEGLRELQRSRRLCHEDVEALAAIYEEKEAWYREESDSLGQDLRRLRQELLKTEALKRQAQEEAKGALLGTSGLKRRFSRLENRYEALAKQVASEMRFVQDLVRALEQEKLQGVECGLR
Protocol: as §1, §2

FGFR3 = biological target: T4, FGFR3 (Homo sapiens, UniProt P22607); experiment: SelectScreen kinase panel; assay type: biochemical
T4 construct: purchased Invitrogen / ThermoFisher SelectScreen
Protocol: as §1, §2

BrSK1 = biological target: T5, BrSK1 (Homo sapiens, UniProt Q8TDC3); experiment: SelectScreen kinase panel; assay type: biochemical
T5 construct: purchased Invitrogen / ThermoFisher SelectScreen
T5 sequence (Q8TDC3 whole entry): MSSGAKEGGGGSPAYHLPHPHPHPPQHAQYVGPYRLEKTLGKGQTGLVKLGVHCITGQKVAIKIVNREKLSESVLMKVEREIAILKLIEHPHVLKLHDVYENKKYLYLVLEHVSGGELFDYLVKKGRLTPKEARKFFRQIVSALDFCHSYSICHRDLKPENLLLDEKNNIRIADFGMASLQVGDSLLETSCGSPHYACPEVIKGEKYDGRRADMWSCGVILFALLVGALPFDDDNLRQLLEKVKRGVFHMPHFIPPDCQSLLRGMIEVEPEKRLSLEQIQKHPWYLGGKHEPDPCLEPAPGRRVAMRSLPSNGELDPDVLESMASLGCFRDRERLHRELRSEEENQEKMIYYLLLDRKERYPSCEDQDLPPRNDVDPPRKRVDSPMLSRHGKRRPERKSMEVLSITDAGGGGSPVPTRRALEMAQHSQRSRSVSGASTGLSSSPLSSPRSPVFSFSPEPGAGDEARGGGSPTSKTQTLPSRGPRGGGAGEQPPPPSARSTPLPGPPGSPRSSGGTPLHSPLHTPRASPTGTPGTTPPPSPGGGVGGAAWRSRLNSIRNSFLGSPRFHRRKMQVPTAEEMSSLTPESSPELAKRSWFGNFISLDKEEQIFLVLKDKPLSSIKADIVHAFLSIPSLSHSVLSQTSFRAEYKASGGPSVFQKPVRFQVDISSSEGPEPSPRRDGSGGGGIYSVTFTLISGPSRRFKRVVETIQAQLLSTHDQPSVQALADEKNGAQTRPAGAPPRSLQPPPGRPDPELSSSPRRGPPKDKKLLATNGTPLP
Protocol: as §1, §2

FAK = biological target: T6, FAK (Homo sapiens, UniProt Q05397); experiment: SelectScreen kinase panel; assay type: biochemical
T6 construct: purchased Invitrogen / ThermoFisher SelectScreen
Protocol: as §1, §2

EGFR = biological target: T7, EGFR (Homo sapiens, UniProt P00533); experiment: SelectScreen kinase panel; assay type: biochemical
T7 construct: purchased Invitrogen / ThermoFisher SelectScreen
T7 sequence (P00533 25-1210): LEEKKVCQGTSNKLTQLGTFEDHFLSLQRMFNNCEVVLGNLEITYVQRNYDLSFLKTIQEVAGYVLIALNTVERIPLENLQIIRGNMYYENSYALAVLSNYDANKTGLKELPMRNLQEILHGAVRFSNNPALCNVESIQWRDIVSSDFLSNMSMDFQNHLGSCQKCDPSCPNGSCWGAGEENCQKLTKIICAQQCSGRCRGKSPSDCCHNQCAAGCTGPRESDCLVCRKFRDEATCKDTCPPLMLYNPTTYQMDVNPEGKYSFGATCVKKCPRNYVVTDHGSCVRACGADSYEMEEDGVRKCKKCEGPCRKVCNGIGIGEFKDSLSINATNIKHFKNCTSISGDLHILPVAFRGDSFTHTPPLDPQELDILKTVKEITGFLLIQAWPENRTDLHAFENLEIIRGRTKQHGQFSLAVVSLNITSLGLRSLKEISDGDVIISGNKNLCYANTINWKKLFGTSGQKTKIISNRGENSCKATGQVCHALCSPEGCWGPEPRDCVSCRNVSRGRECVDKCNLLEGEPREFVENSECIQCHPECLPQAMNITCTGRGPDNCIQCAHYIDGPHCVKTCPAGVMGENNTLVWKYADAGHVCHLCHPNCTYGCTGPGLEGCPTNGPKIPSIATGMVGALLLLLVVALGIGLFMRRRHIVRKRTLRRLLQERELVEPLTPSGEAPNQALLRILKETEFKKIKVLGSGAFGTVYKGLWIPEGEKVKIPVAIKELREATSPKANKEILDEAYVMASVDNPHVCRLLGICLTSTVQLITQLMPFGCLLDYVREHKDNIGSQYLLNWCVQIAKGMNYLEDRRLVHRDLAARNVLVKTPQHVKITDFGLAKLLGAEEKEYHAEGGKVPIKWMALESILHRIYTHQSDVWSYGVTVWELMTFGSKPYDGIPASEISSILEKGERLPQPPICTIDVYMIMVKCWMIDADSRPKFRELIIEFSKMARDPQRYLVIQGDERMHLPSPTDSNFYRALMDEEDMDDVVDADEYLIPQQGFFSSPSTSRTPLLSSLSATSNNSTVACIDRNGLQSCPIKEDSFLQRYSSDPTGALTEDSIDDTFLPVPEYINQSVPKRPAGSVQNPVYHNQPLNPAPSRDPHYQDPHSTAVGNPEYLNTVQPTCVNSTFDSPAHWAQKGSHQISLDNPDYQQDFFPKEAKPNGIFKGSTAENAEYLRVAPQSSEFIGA
Protocol: as §1, §2

DAPK1 = biological target: T8, DAPK1 (Homo sapiens, UniProt P53355); experiment: SelectScreen kinase panel; assay type: biochemical
T8 construct: purchased Invitrogen / ThermoFisher SelectScreen
Protocol: as §1, §2

AKT2 = biological target: T9, AKT2 (Homo sapiens, UniProt P31751); experiment: SelectScreen kinase panel; assay type: biochemical
T9 construct: purchased Invitrogen / ThermoFisher SelectScreen
T9 sequence (P31751 whole entry): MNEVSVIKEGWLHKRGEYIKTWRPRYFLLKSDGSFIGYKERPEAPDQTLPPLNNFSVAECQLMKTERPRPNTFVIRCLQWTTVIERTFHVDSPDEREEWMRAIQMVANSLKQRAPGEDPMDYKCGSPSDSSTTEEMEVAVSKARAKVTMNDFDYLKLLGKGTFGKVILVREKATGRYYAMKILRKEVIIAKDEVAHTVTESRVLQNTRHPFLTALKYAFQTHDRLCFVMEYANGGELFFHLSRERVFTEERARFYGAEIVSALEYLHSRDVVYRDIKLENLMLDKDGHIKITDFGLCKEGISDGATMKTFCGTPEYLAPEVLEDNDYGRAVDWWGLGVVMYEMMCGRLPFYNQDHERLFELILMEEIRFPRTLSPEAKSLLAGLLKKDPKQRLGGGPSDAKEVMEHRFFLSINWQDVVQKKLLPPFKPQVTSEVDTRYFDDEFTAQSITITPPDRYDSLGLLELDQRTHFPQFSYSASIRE
Protocol: as §1, §2

TAO1 = biological target: T10, TAO1 (Homo sapiens, UniProt Q9UL54); experiment: SelectScreen kinase panel; assay type: biochemical
T10 construct: purchased Invitrogen / ThermoFisher SelectScreen
T10 sequence (Q9UL54 whole entry): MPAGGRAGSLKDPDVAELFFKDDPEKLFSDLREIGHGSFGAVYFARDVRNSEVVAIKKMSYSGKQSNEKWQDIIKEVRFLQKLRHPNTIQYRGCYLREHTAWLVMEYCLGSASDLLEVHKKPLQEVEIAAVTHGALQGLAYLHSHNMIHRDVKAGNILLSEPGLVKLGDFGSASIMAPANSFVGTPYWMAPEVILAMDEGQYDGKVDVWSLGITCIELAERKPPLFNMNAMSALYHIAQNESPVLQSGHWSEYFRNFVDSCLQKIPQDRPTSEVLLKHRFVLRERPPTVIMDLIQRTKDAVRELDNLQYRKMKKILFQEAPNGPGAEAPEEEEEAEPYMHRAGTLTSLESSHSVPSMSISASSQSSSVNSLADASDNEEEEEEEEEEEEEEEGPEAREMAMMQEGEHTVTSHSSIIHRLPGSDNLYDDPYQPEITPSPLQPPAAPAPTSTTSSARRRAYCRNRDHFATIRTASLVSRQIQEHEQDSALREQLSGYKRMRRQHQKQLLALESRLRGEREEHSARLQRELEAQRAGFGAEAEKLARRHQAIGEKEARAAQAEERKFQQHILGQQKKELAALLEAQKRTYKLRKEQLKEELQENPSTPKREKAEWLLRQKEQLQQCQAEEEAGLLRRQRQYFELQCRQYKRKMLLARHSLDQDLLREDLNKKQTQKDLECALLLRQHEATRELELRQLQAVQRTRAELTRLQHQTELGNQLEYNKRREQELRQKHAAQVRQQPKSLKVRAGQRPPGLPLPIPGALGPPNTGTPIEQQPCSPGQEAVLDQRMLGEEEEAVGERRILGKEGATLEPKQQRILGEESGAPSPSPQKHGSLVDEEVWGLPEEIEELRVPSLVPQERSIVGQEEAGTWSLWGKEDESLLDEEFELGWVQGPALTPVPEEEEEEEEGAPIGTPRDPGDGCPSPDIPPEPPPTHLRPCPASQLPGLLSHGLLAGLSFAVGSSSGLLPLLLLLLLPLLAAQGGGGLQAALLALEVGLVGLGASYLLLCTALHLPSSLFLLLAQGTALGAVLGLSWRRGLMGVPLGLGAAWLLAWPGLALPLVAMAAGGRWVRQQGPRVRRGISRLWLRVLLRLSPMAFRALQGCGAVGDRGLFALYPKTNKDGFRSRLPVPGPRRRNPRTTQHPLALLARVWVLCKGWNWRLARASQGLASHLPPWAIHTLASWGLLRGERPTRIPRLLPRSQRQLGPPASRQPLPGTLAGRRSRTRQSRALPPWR
Protocol: as §1, §2

CSF1R = biological target: T11, CSF1R (Homo sapiens, UniProt P07333); experiment: SelectScreen kinase panel; assay type: biochemical
T11 construct: purchased Invitrogen / ThermoFisher SelectScreen
Protocol: as §1, §2

FGFR4 = biological target: T12, FGFR4 (Homo sapiens, UniProt P22455); experiment: SelectScreen kinase panel; assay type: biochemical
T12 construct: purchased Invitrogen / ThermoFisher SelectScreen
T12 sequence (P22455 22-802): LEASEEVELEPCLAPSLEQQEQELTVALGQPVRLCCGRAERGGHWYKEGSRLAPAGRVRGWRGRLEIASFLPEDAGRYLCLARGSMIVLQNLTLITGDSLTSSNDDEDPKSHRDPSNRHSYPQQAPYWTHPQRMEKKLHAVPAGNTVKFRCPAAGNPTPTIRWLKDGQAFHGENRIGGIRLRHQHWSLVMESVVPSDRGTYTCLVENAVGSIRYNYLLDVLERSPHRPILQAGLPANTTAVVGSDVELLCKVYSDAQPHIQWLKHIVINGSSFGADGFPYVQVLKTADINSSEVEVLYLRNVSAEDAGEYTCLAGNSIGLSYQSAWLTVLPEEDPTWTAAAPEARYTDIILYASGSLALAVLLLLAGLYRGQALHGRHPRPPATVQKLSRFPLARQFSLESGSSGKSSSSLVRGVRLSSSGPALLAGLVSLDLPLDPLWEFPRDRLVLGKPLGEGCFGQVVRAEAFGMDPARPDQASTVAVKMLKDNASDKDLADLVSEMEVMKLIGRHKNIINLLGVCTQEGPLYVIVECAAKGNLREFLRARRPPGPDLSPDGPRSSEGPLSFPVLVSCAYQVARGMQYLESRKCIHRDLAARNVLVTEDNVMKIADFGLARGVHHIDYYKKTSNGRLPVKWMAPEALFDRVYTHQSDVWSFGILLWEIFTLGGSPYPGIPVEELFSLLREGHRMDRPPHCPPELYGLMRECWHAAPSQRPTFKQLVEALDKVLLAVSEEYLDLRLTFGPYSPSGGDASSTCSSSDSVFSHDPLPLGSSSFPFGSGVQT
Protocol: as §1, §2

[2] = test system: rhCD40L induced ICOSL expression on human B cells; experiment: ICOSL expression on human B cell assay; assay type: cell-based; conditions: B-cell, ICOSL MFI by FACS, mean ± SD, read-out: CD40-induced ICOSL IC50
Protocol: Human B cells were isolated from whole blood. B cells were enriched by RosetteSep protocol (Stem Cell Technologies), and then isolated using Human B cell isolation kit II (Miltenyi). […] Mean fluorescent intensity (MFI) of CD40L and BAFF induced ICOSL expression was measured by flow cytometry on cells stained with anti-CD20 and anti-ICOSL, using a FACS Calibur instrument (BD). Plots and IC50 measurements were generated using GraphPad Prism Software.

[3] = In vivo studies in mice: PK, target coverage, tolerability; parameters: species or system mouse
PhK_gamma2 = biological target: T13, PhK_gamma2 (Homo sapiens, UniProt P15735); experiment: SelectScreen kinase panel; assay type: biochemical
T13 construct: purchased Invitrogen / ThermoFisher SelectScreen

[4] = test system: nuclear RelA (canonical NF-κB signaling); experiment: High content nuclear RelA imaging, TNF-stimulated HeLa cells; assay type: cell-based, human
Protocol: The HeLa cell line was used to define the cellular selectivity of NIK inhibitors toward inhibition of classical vs. non-classical NF-κB signaling using high content cellular imaging assays. For the nuclear translocation assay p52 (non-canonical NF-κB signaling), HeLa cells were treated with different concentrations of compounds previously diluted in DMSO (final [DMSO] = 0.2% in all wells) in DMEM medium (10% FBS, 2 mM Glutamine) and then stimulated with 300 ng/mL of an anti-lymphotoxin beta receptor antibody for 4.5 h. In the REL-A nuclear translocation assay, HeLa cells were incubated with compounds for 4 h 50 min before stimulating them with 2 ng/mL TNF (R&D Systems) for 10 min. Cells were fixed with 4% paraformaldehyde, permeabilized by adding 0.1% Triton X-100 in phosphate buffered saline, and then are incubated with either 2 μg/mL anti-p52 antibody or 400 ng/mL anti-REL-A (p65) antibody. Finally, the cells are incubated with an Alexa488-labeled secondary antibody (Invitrogen) and DRAQ5 DNA stain (Biostatus). Imaging was carried out using an Opera reader (Perkin Elmer) and data were analyzed with Acapella software (Perkin Elmer). The p52 or REL-A translocation into the nucleus is quantified by the ratio of the nuclear to cytoplasmic signal intensity.

COc1cc(C(N)=O)nc(-c2cccc(C#C[C@]3(O)CCN(C)C3=O)c2)c1 [NIK SMI1]
anti-CD40-induced IL-12p40 production [1]: reduced | inhibition at 1 µM (CHK1): 14% | inhibition at 1 µM (ErbB4): 7% | inhibition at 1 µM (ZIPK): -5.5% | inhibition at 1 µM (FGFR3): -3.5% | inhibition at 1 µM (BrSK1): 13.5% | inhibition at 1 µM (FAK): 10.5% | inhibition at 1 µM (EGFR): -11.5% | inhibition at 1 µM (DAPK1): 15.1% | inhibition at 1 µM (AKT2): 13% | inhibition at 1 µM (TAO1): 17% | inhibition at 1 µM (CSF1R): -11% | inhibition at 1 µM (FGFR4): 7.5% | pIC50 [2]: 7.07 | adverse effect not explained by on-target pharmacology ([3]; 180 mg/kg, no formal toxicity assessment): never observed any adverse effect | coverage of NIK activity in vivo ([3]; doses used in vivo): 70–90% | PK properties ([3]; mouse, in vivo): excellent | inhibition at 1 µM (PhK_gamma2): -3% | effect on canonical signaling as measured by TNF alpha-induced nuclear relA levels [4]: no effect | pIC50 ([4]; Homo sapiens, TNF induced): < 5.70
